Test results from PubChem BioAssay AID2060884 (Molecular Pharmacology Branch, DTP, NCI, 2025).

Tested on: NCI-H929 complex spheroids, viability % test/control
Assay: Anticancer human tumor NCI-H929 cell line growth inhibition [RAS];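 also: compound exposure lasted seven days before viability was read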;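 as to viability, T/C: 100% = DMSO vehicle control viability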
Conditions: for IC50: curve of first compound; for viability, T/C: stronger effect = lower value
How it was run: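 Multi-cell-type spheroids: tumor cells plus HUVEC endothelial cells and mesenchymal stem cells. RAS-pathway inhibitors were combined with targeted agents, each dosed in half-log steps down from clinical Cmax, or from 10 microM when Cmax was unknown.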

[1] = second compound 0.000949 µM, first compound 0.00316 µM
[2] = second compound 0.000949 µM, first compound 0.01 µM
[3] = second compound 0.000949 µM, first compound 0.0316 µM
[4] = second compound 0.000949 µM, first compound 0.1 µM
[5] = second compound 0.000949 µM, first compound 0.316 µM
[6] = second compound 0.000949 µM, first compound 1 µM
[7] = second compound 0.003 µM, first compound 0.00316 µM
[8] = second compound 0.003 µM, first compound 0.01 µM
[9] = second compound 0.003 µM, first compound 0.0316 µM
[10] = second compound 0.003 µM, first compound 0.1 µM
[11] = second compound 0.003 µM, first compound 0.316 µM
[12] = second compound 0.003 µM, first compound 1 µM
[13] = second compound 0.00949 µM, first compound 0.00316 µM
[14] = second compound 0.00949 µM, first compound 0.01 µM
[15] = second compound 0.00949 µM, first compound 0.0316 µM
[16] = second compound 0.00949 µM, first compound 0.1 µM
[17] = second compound 0.00949 µM, first compound 0.316 µM
[18] = second compound 0.00949 µM, first compound 1 µM
[19] = second compound 0.03 µM, first compound 0.00316 µM
[20] = second compound 0.03 µM, first compound 0.01 µM
[21] = second compound 0.03 µM, first compound 0.0316 µM
[22] = second compound 0.03 µM, first compound 0.1 µM
[23] = second compound 0.03 µM, first compound 0.316 µM
[24] = second compound 0.03 µM, first compound 1 µM
[25] = second compound 0.0949 µM, first compound 0.00316 µM
[26] = second compound 0.0949 µM, first compound 0.01 µM
[27] = second compound 0.0949 µM, first compound 0.0316 µM
[28] = second compound 0.0949 µM, first compound 0.1 µM
[29] = second compound 0.0949 µM, first compound 0.316 µM
[30] = second compound 0.0949 µM, first compound 1 µM
[31] = second compound 0.3 µM, first compound 0.00316 µM
[32] = second compound 0.3 µM, first compound 0.01 µM
[33] = second compound 0.3 µM, first compound 0.0316 µM
[34] = second compound 0.3 µM, first compound 0.1 µM
[35] = second compound 0.3 µM, first compound 0.316 µM
[36] = second compound 0.3 µM, first compound 1 µM

**Q.** With `Nc1ccn(C2OC(CO)C(O)C2(F)F)c(=O)n1` (centres undefined) + CCn1c(-c2cccnc2C(C)OC)c2c3cc(ccc31)N1CCOC(CC(NC(=O)C(C(C)C)N(C)C(=O)C3(F)CCN(C(=O)C#CC(C)(C)N(C)C)CC3)C(=O)N3CCCC(N3)C(=O)OCC(C)(C)C2)C1 as the molecule, how does the IC50 (second compound 0.000949 µM) read?
**A.** The IC50 was 6.16 nM.

**Q.** And the IC50 (second compound 0.003 µM)?
**A.** Its IC50 is 6.22 nM.

**Q.** And the IC50 (second compound 0.00949 µM)?
**A.** Its IC50 is 5.72 nM.

**Q.** What about the IC50 (second compound 0.03 µM) of the same molecule?
**A.** The IC50 was 5.97 nM.

**Q.** And the IC50 (second compound 0.0949 µM)?
**A.** The IC50 was 5.49 nM.

**Q.** And the IC50 (second compound 0.3 µM)?
**A.** Its IC50 is 5.79 nM.

**Q.** What about the viability, T/C [1] of the same molecule?
**A.** Its viability, T/C is 105%.

**Q.** What about the viability, T/C [2] of the same molecule?
**A.** Its viability, T/C is 10.1%.

**Q.** And the viability, T/C [3]?
**A.** Its viability, T/C is 0.99%.

**Q.** And the viability, T/C [4]?
**A.** Its viability, T/C is 0.68%.

**Q.** What about the viability, T/C [5] of the same molecule?
**A.** Its viability, T/C is 0.75%.

**Q.** What about the viability, T/C [6] of the same molecule?
**A.** Its viability, T/C is 0.74%.

**Q.** And the viability, T/C [7]?
**A.** Its viability, T/C is 103%.

**Q.** And the viability, T/C [8]?
**A.** Its viability, T/C is 12.8%.

**Q.** What about the viability, T/C [9] of the same molecule?
**A.** The viability, T/C was 0.86%.

**Q.** And the viability, T/C [10]?
**A.** Its viability, T/C is 0.83%.

**Q.** What about the viability, T/C [11] of the same molecule?
**A.** Its viability, T/C is 0.91%.

**Q.** What about the viability, T/C [12] of the same molecule?
**A.** Its viability, T/C is 0.96%.

**Q.** And the viability, T/C [13]?
**A.** The viability, T/C was 96.3%.

**Q.** What about the viability, T/C [14] of the same molecule?
**A.** The viability, T/C was 6.3%.

**Q.** What about the viability, T/C [15] of the same molecule?
**A.** The viability, T/C was 1.25%.

**Q.** And the viability, T/C [16]?
**A.** The viability, T/C was 0.77%.

**Q.** What about the viability, T/C [17] of the same molecule?
**A.** Its viability, T/C is 0.75%.

**Q.** What about the viability, T/C [18] of the same molecule?
**A.** The viability, T/C was 0.72%.

**Q.** What about the viability, T/C [19] of the same molecule?
**A.** The viability, T/C was 99.8%.

**Q.** What about the viability, T/C [20] of the same molecule?
**A.** Its viability, T/C is 9.61%.

**Q.** What about the viability, T/C [21] of the same molecule?
**A.** Its viability, T/C is 1.21%.

**Q.** And the viability, T/C [22]?
**A.** Its viability, T/C is 0.91%.

**Q.** What about the viability, T/C [23] of the same molecule?
**A.** Its viability, T/C is 0.88%.

**Q.** And the viability, T/C [24]?
**A.** The viability, T/C was 0.89%.

**Q.** What about the viability, T/C [25] of the same molecule?
**A.** The viability, T/C was 92.5%.

**Q.** And the viability, T/C [26]?
**A.** Its viability, T/C is 3.76%.

**Q.** And the viability, T/C [27]?
**A.** Its viability, T/C is 1.08%.

**Q.** And the viability, T/C [28]?
**A.** Its viability, T/C is 0.91%.

**Q.** And the viability, T/C [29]?
**A.** The viability, T/C was 0.76%.

**Q.** What about the viability, T/C [30] of the same molecule?
**A.** Its viability, T/C is 0.75%.

**Q.** And the viability, T/C [31]?
**A.** Its viability, T/C is 103%.

**Q.** What about the viability, T/C [32] of the same molecule?
**A.** The viability, T/C was 2.46%.

**Q.** And the viability, T/C [33]?
**A.** Its viability, T/C is 1.01%.

**Q.** What about the viability, T/C [34] of the same molecule?
**A.** Its viability, T/C is 0.96%.

**Q.** And the viability, T/C [35]?
**A.** Its viability, T/C is 0.99%.

**Q.** What about the viability, T/C [36] of the same molecule?
**A.** Its viability, T/C is 0.8%.

**Q.** For `O=C(c1ccc(F)c(F)c1Nc1ccc(I)cc1F)N1CC(O)([C@@H]2CCCCN2)C1` + CCn1c(-c2cc(N3CCN(C)CC3)cnc2C(C)OC)c2c3cc(ccc31)-c1csc(n1)CC(NC(=O)C1CC1C)C(=O)N1CCCC(N1)C(=O)OCC(C)(C)C2, which IC50 (second compound 0.000949 µM) is on record?
**A.** Its IC50 is 625 nM.

**Q.** And the IC50 (second compound 0.003 µM)?
**A.** Its IC50 is 290 nM.

**Q.** And the IC50 (second compound 0.00949 µM)?
**A.** The IC50 was 69 nM.

**Q.** And the IC50 (second compound 0.03 µM)?
**A.** The IC50 was < 3.16 nM.

**Q.** What about the IC50 (second compound 0.0949 µM) of the same molecule?
**A.** Its IC50 is < 3.16 nM.

**Q.** What about the IC50 (second compound 0.3 µM) of the same molecule?
**A.** Its IC50 is < 3.16 nM.

**Q.** What about the viability, T/C [1] of the same molecule?
**A.** Its viability, T/C is 93.3%.

**Q.** What about the viability, T/C [2] of the same molecule?
**A.** Its viability, T/C is 92.5%.

**Q.** And the viability, T/C [3]?
**A.** The viability, T/C was 103%.

**Q.** And the viability, T/C [4]?
**A.** The viability, T/C was 108%.

**Q.** And the viability, T/C [5]?
**A.** The viability, T/C was 97.3%.

**Q.** What about the viability, T/C [6] of the same molecule?
**A.** Its viability, T/C is 17.4%.

**Q.** And the viability, T/C [7]?
**A.** The viability, T/C was 90.8%.

**Q.** What about the viability, T/C [8] of the same molecule?
**A.** The viability, T/C was 101%.

**Q.** And the viability, T/C [9]?
**A.** Its viability, T/C is 111%.

**Q.** What about the viability, T/C [10] of the same molecule?
**A.** Its viability, T/C is 119%.

**Q.** And the viability, T/C [11]?
**A.** The viability, T/C was 45.5%.

**Q.** What about the viability, T/C [12] of the same molecule?
**A.** The viability, T/C was 7.02%.

**Q.** What about the viability, T/C [13] of the same molecule?
**A.** The viability, T/C was 110%.

**Q.** And the viability, T/C [14]?
**A.** The viability, T/C was 117%.

**Q.** What about the viability, T/C [15] of the same molecule?
**A.** The viability, T/C was 113%.

**Q.** And the viability, T/C [16]?
**A.** The viability, T/C was 19.9%.

**Q.** What about the viability, T/C [17] of the same molecule?
**A.** The viability, T/C was 6.27%.

**Q.** And the viability, T/C [18]?
**A.** Its viability, T/C is 3.63%.

**Q.** What about the viability, T/C [19] of the same molecule?
**A.** Its viability, T/C is 31.8%.

**Q.** What about the viability, T/C [20] of the same molecule?
**A.** Its viability, T/C is 15.7%.

**Q.** And the viability, T/C [21]?
**A.** The viability, T/C was 4.87%.

**Q.** What about the viability, T/C [22] of the same molecule?
**A.** The viability, T/C was 2.83%.

**Q.** What about the viability, T/C [23] of the same molecule?
**A.** Its viability, T/C is 2.77%.

**Q.** And the viability, T/C [24]?
**A.** Its viability, T/C is 2.07%.

**Q.** What about the viability, T/C [25] of the same molecule?
**A.** Its viability, T/C is 4.34%.

**Q.** And the viability, T/C [26]?
**A.** The viability, T/C was 3.41%.

**Q.** What about the viability, T/C [27] of the same molecule?
**A.** Its viability, T/C is 1.75%.

**Q.** What about the viability, T/C [28] of the same molecule?
**A.** Its viability, T/C is 1.48%.

**Q.** And the viability, T/C [29]?
**A.** Its viability, T/C is 1.32%.

**Q.** What about the viability, T/C [30] of the same molecule?
**A.** Its viability, T/C is 0.89%.

**Q.** What about the viability, T/C [31] of the same molecule?
**A.** Its viability, T/C is 3%.

**Q.** And the viability, T/C [32]?
**A.** Its viability, T/C is 1.97%.

**Q.** And the viability, T/C [33]?
**A.** The viability, T/C was 1.19%.

**Q.** And the viability, T/C [34]?
**A.** Its viability, T/C is 1.05%.

**Q.** What about the viability, T/C [35] of the same molecule?
**A.** The viability, T/C was 1.12%.

**Q.** And the viability, T/C [36]?
**A.** The viability, T/C was 0.68%.
